Laboratory results reported in PubChem BioAssay (NCI).
≈ marks a conversion by molar mass, not a printed value.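 Each compound was tested at five concentrations against cells in 96-well plates for 48 hours. The concentration for 50% growth inhibition is given as GI50. Definition used: TGI = concentration required for complete inhibition of growth.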 Residues, ends and D or L forms follow the SMILES beside them. *: point of attachment. Boc = CC(C)(C)OC(=O)*; OBn = c1ccc(CO*)cc1

Key:
Assay in all cases: NCI anticancer screen, dose series, 48 h
SR leukemia = tested on: SR leukemia
UACC-257 melanoma = tested on: UACC-257 melanoma
EKVX NSCLC = tested on: EKVX NSCLC
NCI-H460 lung = tested on: NCI-H460 lung
OVCAR-8 ovarian = tested on: OVCAR-8 ovarian
LOX IMVI melanoma = tested on: LOX IMVI melanoma
SK-MEL-5 melanoma = tested on: SK-MEL-5 melanoma
HCT-116 colon = tested on: HCT-116 colon
K-562 leukemia = tested on: K-562 leukemia
SK-OV-3 ovarian = tested on: SK-OV-3 ovarian
UACC-62 melanoma = tested on: UACC-62 melanoma
IGROV1 ovarian = tested on: IGROV1 ovarian
MCF7 breast = tested on: MCF7 breast
NCI-H226 lung = tested on: NCI-H226 lung
HT29 colon = tested on: HT29 colon
A549 NSCLC = tested on: A549 NSCLC
SF-268 CNS = tested on: SF-268 CNS
SK-MEL-28 melanoma = tested on: SK-MEL-28 melanoma
PC-3 prostate = tested on: PC-3 prostate
HCT-15 colon = tested on: HCT-15 colon
OVCAR-3 ovarian = tested on: OVCAR-3 ovarian
ACHN renal = tested on: ACHN renal
HCC-2998 colon = tested on: HCC-2998 colon
NCI/ADR-RES ovarian = tested on: NCI/ADR-RES ovarian
CCRF-CEM leukemia = tested on: CCRF-CEM leukemia
OVCAR-4 ovarian = tested on: OVCAR-4 ovarian
BT-549 breast = tested on: BT-549 breast
UO-31 renal = tested on: UO-31 renal
T-47D breast = tested on: T-47D breast
RXF 393 renal = tested on: RXF 393 renal
SNB-75 CNS = tested on: SNB-75 CNS
KM12 colon = tested on: KM12 colon
SN12C renal = tested on: SN12C renal
TK-10 renal = tested on: TK-10 renal
MDA-MB-231 breast = tested on: MDA-MB-231 breast
U251 CNS = tested on: U251 CNS
M14 melanoma = tested on: M14 melanoma
COLO 205 colon = tested on: COLO 205 colon
MOLT-4 leukemia = tested on: MOLT-4 leukemia
SNB-19 CNS = tested on: SNB-19 CNS
SF-295 CNS = tested on: SF-295 CNS
MDA-MB-435 = tested on: MDA-MB-435
NCI-H522 lung = tested on: NCI-H522 lung
HS 578T breast = tested on: HS 578T breast
NCI-H23 lung = tested on: NCI-H23 lung
CAKI-1 renal = tested on: CAKI-1 renal
SW-620 colon = tested on: SW-620 colon
DU-145 prostate = tested on: DU-145 prostate
SF-539 CNS = tested on: SF-539 CNS
786-0 renal = tested on: 786-0 renal
HL-60(TB) leukemia = tested on: HL-60(TB) leukemia
HOP-62 NSCLC = tested on: HOP-62 NSCLC
SK-MEL-2 melanoma = tested on: SK-MEL-2 melanoma

Structure (SMILES): O=C1OCC2=Nc3cccc4cccc(c34)N12
- TGI (SR leukemia): > 100 µM
- TGI (UACC-257 melanoma): > 100 µM
- TGI (EKVX NSCLC): > 100 µM
- TGI (NCI-H460 lung): > 100 µM
- TGI (OVCAR-8 ovarian): > 100 µM
- TGI (LOX IMVI melanoma): > 100 µM
- TGI (SK-MEL-5 melanoma): > 100 µM
- TGI (HCT-116 colon): > 100 µM
- TGI (K-562 leukemia): > 100 µM
- TGI (SK-OV-3 ovarian): > 100 µM
- TGI (UACC-62 melanoma): > 100 µM
- TGI (IGROV1 ovarian): > 100 µM
- TGI (MCF7 breast): > 100 µM
- TGI (NCI-H226 lung): > 100 µM
- TGI (HT29 colon): > 100 µM
- TGI (A549 NSCLC): > 100 µM
- TGI (SF-268 CNS): > 100 µM
- TGI (SK-MEL-28 melanoma): > 100 µM
- TGI (PC-3 prostate): > 100 µM
- TGI (HCT-15 colon): > 100 µM
- TGI (OVCAR-3 ovarian): > 100 µM
- TGI (ACHN renal): > 100 µM
- TGI (HCC-2998 colon): > 100 µM
- TGI (NCI/ADR-RES ovarian): > 100 µM
- TGI (CCRF-CEM leukemia): > 100 µM
- TGI (OVCAR-4 ovarian): > 100 µM
- TGI (BT-549 breast): > 100 µM
- TGI (UO-31 renal): > 100 µM
- TGI (T-47D breast): > 100 µM
- TGI (RXF 393 renal): > 100 µM
- TGI (SNB-75 CNS): > 100 µM
- TGI (KM12 colon): > 100 µM
- TGI (SN12C renal): > 100 µM
- TGI (TK-10 renal): > 100 µM
- TGI (MDA-MB-231 breast): > 100 µM
- TGI (U251 CNS): > 100 µM
- TGI (M14 melanoma): > 100 µM
- TGI (COLO 205 colon): > 100 µM
- TGI (MOLT-4 leukemia): > 100 µM
- TGI (SNB-19 CNS): > 100 µM
- TGI (SF-295 CNS): > 100 µM
- TGI (MDA-MB-435): > 100 µM
- TGI (NCI-H522 lung): > 100 µM
- TGI (HS 578T breast): > 100 µM
- TGI (NCI-H23 lung): > 100 µM
- TGI (CAKI-1 renal): > 100 µM
- TGI (SW-620 colon): > 100 µM
- TGI (DU-145 prostate): > 100 µM
- TGI (SF-539 CNS): > 100 µM
- TGI (786-0 renal): > 100 µM
- TGI (HL-60(TB) leukemia): > 100 µM
- TGI (HOP-62 NSCLC): > 100 µM

Structure (SMILES): CC(C)C(NC(=O)OC(C)(C)C)C(=O)N1CCCC1C(=O)OCc1ccccc1 (stereo not drawn) (Boc-Val-Pro-OBn; configuration not given here)
- GI50 (SR leukemia): 90.6 µg/mL (≈ 224 µM)
- GI50 (SK-MEL-2 melanoma): 46.3 µg/mL (≈ 115 µM)
